# In paper PMC2150373, “Phase I study of the mitomycin C analogue BMS-181174” (British Journal of Cancer, 1998):
# Like-named read-outs stand apart in the source and are kept apart here.
# Legend:
# [1] = tested on: histologically proven advanced cancer
# Protocol: (§1) In a phase I study of 82 patients with confirmed malignancy, we administered BMS-181174 at doses of 0.8-75 mg m-2 by intravenous injection every 28 days. At least three patients were evaluated at each dose level, and 174 courses were administered. […] BMS- 181174, also known as BMY-25067, is a semi-synthetic analogue of MMC created by substitution of the […] amino group by a nitrophenyl disulphide moiety (Figure 1). […] It is not known what form of BMS-181174 enters cells. However, it is possible that, after systemic administration, several forms of the drug in addition to the parent compound may be present, including mixed disulphides with endogenous thiols (such as cysteine, glutathione and methionine), methylated TEMMC and TEMMC disulphide. […] The anti-tumour effects of BMS-1 81174 have been evaluated in vivo (Bradner et al, 1990). […] The selection of the starting dose for the clinical study was based on the toxic low dose (TLD) in the dog.
# [2] = tested on: patients with histologically proven advanced cancer
# Protocol: as §1
# [3] = Pharmacokinetics of total TEMMC in plasma (HPLC, non-compartmental)
# Protocol: as §1
# mice [4] = settings: single intravenous dose, ref Nicaise and Usakewicz, 1989; cited from earlier work
# dog = settings: ref Nicaise and Usakewicz, 1989; cited from earlier work
# rats = settings: of three species tested (mice, rats and dogs) in rats only; ref Bregman et al, 1989; cited from earlier work
# B 16 melanoma = settings: drug and tumour both intraperitoneal, or i.v. against subcutaneous tumour; ref Bradner et al, 1990; cited from earlier work
# [5] = tested on: subline of L1210 partly resistant to MMC; settings: ref Bradner et al, 1990; cited from earlier work
# [6] = tested on: highly MMC-resistant P388; settings: ref Bradner et al, 1990; cited from earlier work
# mice [7] = settings: respective maximum non-lethal doses in mice; ref Bradner et al, 1990; cited from earlier work
# ferrets = settings: ref Bradner et al, 1990; cited from earlier work
# [8] = tested on: MMC-resistant tumour cell lines; settings: in vitro, ref Rockwell et al, 1995, cited from earlier work
# [9] = preliminary in vitro studies; presumably disulphide exchange with thiols; cited from earlier work
# [10] = tested on: patients with solid tumors; settings: similar doses given by 6-h infusion; ref Planting et al, 1994; cited from earlier work
# mice, rats and dogs = settings: cited from earlier work
# [11] = 65 mg m-2, 12 patients all pretreated with chemotherapy
# [12] = 75 mg m-2, 14 patients with no prior chemotherapy
# [13] = 75 mg m-2, six previously treated patients
smiles,measurement,setting,value
"CO[C@@]12[C@H](COC(N)=O)C3=C(C(=O)C(C)=C(NCCSSc4ccc([N+](=O)[O-])cc4)C3=O)N1C[C@@H]1N[C@@H]12 [BMS-181174, N-7[2-(4-nitrophenyldithio)ethyl] mitomycin C]",partial response rate,[1]; 3 out of 32 patients treated at 65-75 mg m-2,9%
same,treatment discontinued for progressive disease,[1]; 22 out of 32 patients at 65-75 mg m-2,69%
same,treatment discontinued because of progressive disease,[1]; 44 of 50 patients treated at 0.8-50 mg m-2,88%
same,partial response rate,[1]; 50 patients treated at 0.8-50 mg m-2,2%
same,"minor response (MR), no. of patients","[1]; Total, 82 patients",1
same,"partial response (PR), no. of patients","[1]; Total, 82 patients",4
same,"stable disease (SD), no. of patients","[1]; Total, 82 patients",8
same,"progressive disease (PD), no. of patients","[1]; Total, 82 patients (10 not evaluable)",59
same,overall response rate,[1]; all dose levels (discussion),6%
same,partial response rate,"[1]; overall, 4 out of 82 patients, 0.8-75 mg m-2",5%
same,"Thrombophlebitis, worst grade 0, no. of patients","[2]; 65.0 mg m-2, 12 patients",7
same,"Thrombophlebitis, worst grade 1, no. of patients","[2]; 65.0 mg m-2, 12 patients",0
same,"Thrombophlebitis, worst grade 2, no. of patients","[2]; 65.0 mg m-2, 12 patients",4
same,"Thrombophlebitis, worst grade 3, no. of patients","[2]; 65.0 mg m-2, 12 patients",1
same,"Thrombophlebitis, worst grade 4, no. of patients","[2]; 65.0 mg m-2, 12 patients",1
same,"grade 4 anaemia, incidence",[2]; [11],8%
same,"grade 4 thrombocytopenia, incidence",[2]; [11],17%
same,"grade 3-4 anaemia, incidence",[2]; [12],7%
same,"grade 3-4 neutropenia, incidence",[2]; [12],7%
same,"grade 3-4 thrombocytopenia, incidence",[2]; [12],21%
same,patients with grade 4 thrombocytopenia (total),"[2]; 75 mg m-2, 20 patients",eight
same,"Thrombophlebitis, worst grade 0, no. of patients","[2]; 75.0 mg m-2, 20 patients",12
same,"Thrombophlebitis, worst grade 1, no. of patients","[2]; 75.0 mg m-2, 20 patients",0
same,"Thrombophlebitis, worst grade 2, no. of patients","[2]; 75.0 mg m-2, 20 patients",3
same,"Thrombophlebitis, worst grade 3, no. of patients","[2]; 75.0 mg m-2, 20 patients",3
same,"Thrombophlebitis, worst grade 4, no. of patients","[2]; 75.0 mg m-2, 20 patients",2
same,"grade 3-4 anaemia, patients",[2]; [13],none
same,"grade 3-4 neutropenia, incidence",[2]; [13],33%
same,"grade 3-4 thrombocytopenia, incidence",[2]; [13],83%
same,"thrombophlebitis, incidence","[2]; 31 patients treated at 7.5-50 mg m-2, generally grade 1-2",26%
same,"thrombophlebitis of grade 3-4, incidence",[2]; 32 evaluable patients treated at 65-75 mg m-2,22%
same,treatment discontinued because of toxicity,[2]; 32 patients at 65-75 mg m-2,53%
same,"significant reduction in LVEF, incidence","[2]; 62 evaluable patients, all dose levels",15%
same,patients who died suddenly with pneumonia/pneumonitis thought drug-related,[2]; 65-75 mg m-2,Three
same,median nadir times for neutropenia,[2]; 65-75 mg m-2 (discussion),15 to 19 days
same,nadirs for thrombocytopenia (median time),[2]; 65-75 mg m-2 (discussion),16 to 24 days
same,"Haemoglobin, worst WHO grade 1, no. of patients","[2]; 75-T, 6 patients",2
same,"Haemoglobin, worst WHO grade 2, no. of patients","[2]; 75-T, 6 patients",4
same,"Haemoglobin, worst WHO grade 3, no. of patients","[2]; 75-T, 6 patients",0
same,"Haemoglobin, worst WHO grade 4, no. of patients","[2]; 75-T, 6 patients",0
same,"Neutrophils, worst WHO grade 0, no. of patients","[2]; 75-T, 6 patients",1
same,"Neutrophils, worst WHO grade 1, no. of patients","[2]; 75-T, 6 patients",1
same,"Neutrophils, worst WHO grade 2, no. of patients","[2]; 75-T, 6 patients",2
same,"Neutrophils, worst WHO grade 3, no. of patients","[2]; 75-T, 6 patients",2
same,"Neutrophils, worst WHO grade 4, no. of patients","[2]; 75-T, 6 patients",0
same,"Platelets, worst WHO grade 0, no. of patients","[2]; 75-T, 6 patients",1
same,"Platelets, worst WHO grade 1, no. of patients","[2]; 75-T, 6 patients",0
same,"Platelets, worst WHO grade 2, no. of patients","[2]; 75-T, 6 patients",0
same,"Platelets, worst WHO grade 3, no. of patients","[2]; 75-T, 6 patients",2
same,"Platelets, worst WHO grade 4, no. of patients","[2]; 75-T, 6 patients",3
same,"Haemoglobin, worst WHO grade 0, no. of patients","[2]; 75-T: 75 mg m-2, prior chemotherapy, 6 patients",0
same,"Haemoglobin, worst WHO grade 1, no. of patients","[2]; 75-U, 14 patients",3
same,"Haemoglobin, worst WHO grade 2, no. of patients","[2]; 75-U, 14 patients",7
same,"Haemoglobin, worst WHO grade 3, no. of patients","[2]; 75-U, 14 patients",1
same,"Haemoglobin, worst WHO grade 4, no. of patients","[2]; 75-U, 14 patients",0
same,"Neutrophils, worst WHO grade 0, no. of patients","[2]; 75-U, 14 patients",10
same,"Neutrophils, worst WHO grade 1, no. of patients","[2]; 75-U, 14 patients",1
same,"Neutrophils, worst WHO grade 2, no. of patients","[2]; 75-U, 14 patients",2
same,"Neutrophils, worst WHO grade 3, no. of patients","[2]; 75-U, 14 patients",0
same,"Neutrophils, worst WHO grade 4, no. of patients","[2]; 75-U, 14 patients",1
same,"Platelets, worst WHO grade 0, no. of patients","[2]; 75-U, 14 patients",7
same,"Platelets, worst WHO grade 1, no. of patients","[2]; 75-U, 14 patients",1
same,"Platelets, worst WHO grade 2, no. of patients","[2]; 75-U, 14 patients",3
same,"Platelets, worst WHO grade 3, no. of patients","[2]; 75-U, 14 patients",0
same,"Platelets, worst WHO grade 4, no. of patients","[2]; 75-U, 14 patients",3
same,"Haemoglobin, worst WHO grade 0, no. of patients","[2]; 75-U: 75 mg m-2, previously untreated, 14 patients",3
same,"possible renal toxicity (rise in serum creatinine), incidence","[2]; 82 patients, all dose levels",4%
same,possible treatment-related deaths,"[2]; 82 patients, all dose levels",four
same,"grade 1-2 nausea, number of patients","[2]; 82 patients, with prophylactic antiemetics",21
same,"moderate or severe emesis (grade 2-3), number of patients","[2]; 82 patients, thirteen of them treated at 65-75 mg m-2",fifteen
same,"time for platelet counts to recover to normal, median","[2]; after 65 mg m-2, range 21-45 days",25 days
same,"time for granulocyte counts to recover to normal, median","[2]; after 65 mg m-2, range 27-42 days",34.5 days
same,"time for granulocyte counts to recover to normal, median","[2]; after 75 mg m-2, range 19-43",22.5 days
same,"time for platelet counts to recover to normal, median","[2]; after 75 mg m-2, range 20-46",29.5 days
same,"time to nadir blood counts, median",[2]; all dose levels,15 to 22 days
same,maximum-tolerated dose,"[2]; chemotherapy-naive patients, i.v. every 28 days",75 mg m-2
same,"Significant reduction in LVEF, no. of patients","[2]; dose 0.8 mg m-2, 4 patients (3 not evaluable)",0
same,"Significant reduction in LVEF, no. of patients","[2]; dose 1.6 mg m-2, 3 patients (1 not evaluable)",1
same,"Significant reduction in LVEF, no. of patients","[2]; dose 3.2 mg m-2, 7 patients (0 not evaluable)",2
same,"Significant reduction in LVEF, no. of patients","[2]; dose 5.0 mg m-2, 5 patients (1 not evaluable)",1
same,"Significant reduction in LVEF, no. of patients","[2]; dose 7.5 mg m-2, 5 patients (0 not evaluable)",0
same,"Significant reduction in LVEF, no. of patients","[2]; dose 11.5 mg m-2, 7 patients (2 not evaluable)",0
same,"Significant reduction in LVEF, no. of patients","[2]; dose 19 mg m-2, 8 patients (3 not evaluable)",0
same,"Significant reduction in LVEF, no. of patients","[2]; dose 32 mg m-2, 5 patients (1 not evaluable)",1
same,"Significant reduction in LVEF, no. of patients","[2]; dose 50 mg m-2, 6 patients (2 not evaluable)",1
same,"Significant reduction in LVEF, no. of patients","[2]; dose 65 mg m-2, 12 patients (3 not evaluable)",0
same,"Significant reduction in LVEF, no. of patients","[2]; dose 75 mg m-2, 20 patients (4 not evaluable)",3
same,"thrombophlebitis of grades 1-3, incidence","[2]; dose levels 0.8-19 mg m-2, bolus injection",13%
same,dose-limiting toxicity,[2]; i.v. every 28 days,myelosuppression
same,maximum-tolerated dose,"[2]; previously treated patients, i.v. every 28 days",65 mg m-2
same,"significant reduction in LVEF, incidence",[2]; sixteen evaluable patients at 75 mg m-2,19%
same,haematological toxicity (grade >3),[2]; up to 50 mg m-2,no significant
same,plasma levels of TEMMC,"[3]; 0.8 and 1.6 mg m-2 dose levels, assay lower limit of quantitation 50 ng ml-1",not sufficiently sensitive to quantify plasma levels
same,dose linearity of pharmacokinetics,[3]; in vivo,dose linear
same,LD10,mice [4],24.9 mg m-2
same,toxic low dose (TLD),dog,2.5 mg m-2
same,cardiotoxicity,rats,dose-related cardiotoxicity
same,anti-tumour activity compared with MMC,B 16 melanoma,superior activity
same,anti-tumour activity,[5],slight activity
same,anti-tumour activity,[6],inactive
same,neutropenia compared with MMC,mice [7],less neutropenia than MMC
same,neutropenia and thrombocytopenia compared with MMC,ferrets,less neutropenic and much less thrombocytopenic
same,toxicity in hypoxic versus aerobic conditions,[8]; unlike MMC,not more toxic in hypoxic than aerobic conditions
same,activity against MMC-resistant tumour cell lines,[8],active
same,disappearance in plasma,[9],rapidly
same,toxicity of 6-h infusion,[10],local venous toxicity with thrombophlebitis and venospasm
same,preclinical toxicity,"mice, rats and dogs; preclinical testing of MMC analogues, ref Bregman et al, 1989",myelosuppression and proteinuria
same,myelosuppression compared with parent compound MMC,"mice, rats and dogs; preclinical, ref Doyle and Vyas, 1990",marginally less myelosuppressive than the parent compound
